The values below come from patent US11142554B2 (MASSACHUSETTS INSTITUTE OF TECHNOLOGY, priority 2015, dated 2021).

One may read the EC50 as the concentration needed to bring the measured effect to its halfway point. Low readings indicate greater potency, high ones weaker potency. One may read the IC50 as the concentration at which inhibition is half-maximal. A high value points to weaker potency.

Series [1] concerns the target T1, Mcl-1 (Homo sapiens, UniProt Q07820). The series is described as follows: receptor | Mcl-1. The conditions noted are these: read-out: receptor | Mcl-1.
Target sequence in this assay (Q07820 whole entry, looked up): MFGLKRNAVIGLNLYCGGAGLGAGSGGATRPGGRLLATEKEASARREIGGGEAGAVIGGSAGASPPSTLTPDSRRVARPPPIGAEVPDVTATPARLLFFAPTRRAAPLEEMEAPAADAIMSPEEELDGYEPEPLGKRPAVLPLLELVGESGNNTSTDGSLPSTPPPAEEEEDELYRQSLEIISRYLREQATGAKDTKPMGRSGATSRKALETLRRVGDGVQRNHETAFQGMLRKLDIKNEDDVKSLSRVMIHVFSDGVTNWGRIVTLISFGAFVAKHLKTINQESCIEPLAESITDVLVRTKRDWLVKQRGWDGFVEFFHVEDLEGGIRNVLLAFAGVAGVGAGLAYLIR
For series [2], the target named is Bfl-1 (Homo sapiens, UniProt Q16548). The series is described as follows: receptor | Bfl-1.
Series [3] concerns the target Bcl-w (Homo sapiens, UniProt Q92843). The series can be described thus: receptor | Bcl-w.
Series [4] deals with T2, Bcl-xL (Homo sapiens, UniProt Q07817). The series is described as follows: receptor | Bcl-xL.
Target sequence in this assay (Q07817 whole entry, looked up): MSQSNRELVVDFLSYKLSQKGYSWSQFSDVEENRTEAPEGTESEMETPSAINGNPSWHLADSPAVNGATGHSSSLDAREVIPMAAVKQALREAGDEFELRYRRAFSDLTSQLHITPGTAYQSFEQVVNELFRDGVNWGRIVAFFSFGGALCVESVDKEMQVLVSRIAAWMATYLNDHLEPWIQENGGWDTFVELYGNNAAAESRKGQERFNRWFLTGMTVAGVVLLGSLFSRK
Series [5] addresses T3, Bcl-2 (Homo sapiens, UniProt P10415). The series can be described thus: receptor | Bcl-2.
Target sequence in this assay (P10415 whole entry, looked up): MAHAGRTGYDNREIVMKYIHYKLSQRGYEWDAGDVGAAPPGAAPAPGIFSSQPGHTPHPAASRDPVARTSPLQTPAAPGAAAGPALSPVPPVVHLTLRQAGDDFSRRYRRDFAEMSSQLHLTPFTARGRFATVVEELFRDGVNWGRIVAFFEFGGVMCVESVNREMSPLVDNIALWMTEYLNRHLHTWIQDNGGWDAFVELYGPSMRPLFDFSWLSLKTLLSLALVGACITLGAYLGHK
The target in series [6] is T2, Bcl-xL. The series is described as follows: Fluorescence anisotropy direct binding of N-terminal fluorescein peptides. A general note: Fluorescence polarisation rises when a labelled molecule tumbles more slowly, as on binding a larger partner.
Target sequence in this assay (Q07817 whole entry): as the sequence (Q07817 whole entry, looked up) above
The target of series [7] is T3, Bcl-2. The description is as above.
Target sequence in this assay (P10415 whole entry): as the sequence (P10415 whole entry, looked up) above
The target in series [8] is T4, Bcl-w (Homo sapiens, UniProt Q92843).
T4 sequence (Q92843 1-193): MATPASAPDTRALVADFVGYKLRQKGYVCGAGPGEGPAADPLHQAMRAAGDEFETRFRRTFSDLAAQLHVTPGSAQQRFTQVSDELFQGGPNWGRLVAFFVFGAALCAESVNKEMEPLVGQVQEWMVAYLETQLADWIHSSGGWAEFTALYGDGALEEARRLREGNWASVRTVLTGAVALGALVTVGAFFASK
The series is described as above.

For series [9], the target named is T5, Bfl-1 (Homo sapiens, UniProt Q16548).
T5 sequence (Q16548 1-175): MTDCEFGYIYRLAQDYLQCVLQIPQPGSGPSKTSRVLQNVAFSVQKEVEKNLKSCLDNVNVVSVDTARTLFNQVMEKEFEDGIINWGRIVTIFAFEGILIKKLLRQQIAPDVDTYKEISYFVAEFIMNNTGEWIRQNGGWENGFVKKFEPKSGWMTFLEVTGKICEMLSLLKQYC
The series is described as above.

The test system of another series is Bcl-2/Myc 2924 cells. The method, then:
(§1) A whole-cell BH3 profiling assay was used to test the specificity of our Mcl-1-binding peptides in several cell lines with differing dependencies on Bcl-2, Mcl-1, Bcl-xL, or Bfl-1. In this assay, permeabilized cells were treated with increasing doses of BH3 peptides, and mitochondrial outer membrane permeabilization (MOMP) was monitored using the dye JC-1 (see below). Mcl-1/Myc 2640 is an engineered murine leukemia cell line overexpressing murine Mcl-1 and Myc, and Bcl-2/Myc 2924 is a similarly engineered cell line overexpressing human Bcl-2.
(§2) Assay plates were produced by serial dilution of each peptide from 200 μM to 0.2 nM using 10-fold dilutions in DTEB (Derived from Trehalose Experimental Buffer: 135 mM trehalose, 50 mM KCl, 20 μM EDTA, 20 μM EGTA, 0.1% BSA, 5 mM succinate, 10 mM HEPES-KOH pH 7.5) containing 0.005% w/v digitonin, 10 mM 2-mercaptoethanol, 2 μM JC-1, and 20 mg mL-1 oligomycin. Triplicate wells for each peptide were made for each cell line by adding 15 μL of the peptide dilutions to each well of a black, untreated 384-well plate. Control wells containing no peptide or 20 μM FCCP (carbonyl cyanide-4(trifluoromethoxy) phenylhydrazone, a chemical uncoupler of oxidative phosphorylation) were included for zero and complete depolarization, respectively. Multiple plates were produced from the same stock and frozen at −80 ° C. for later use. Frozen plates were brought to RT prior to use, cells were suspended in DTEB at a density of 1.34×10^6 cells/mL, and 15 μL of cell suspension was added to each well of the dilution series to yield wells ranging from 0.1 nM to 100 μM peptide and 20000 cells/well. Fluorescence of JC-1 aggregates was measured at 590 nm with 545 nm excitation on a Tecan Safire2 at 5 min intervals for 3 h. The area under each signal-vs-time curve was calculated and normalized to the untreated and FCCP values to produce the percent depolarization. Curves were plotted as the log [peptide] vs percent depolarization, with sigmoidal dose—response curves fitted using Graphpad PRISM 6.

In a further series the test system is MDA-MB-231 cells. The procedure: as §1, §2
The subject of another series is Mcl-1/Myc 2640 cells. The procedure: as §1, §2
A further series has as its system Pfeiffer cells. The procedure: as §1, §2
Series [10] deals with Human multiple myeloma cell lines dependent upon Mcl-1. The procedure:
as §1, §2

Series [11] deals with T2, Bcl-xL. To be noted: reported in the literature; cited from earlier work.
Target sequence in this assay (Q07817 whole entry, species assumed): as the sequence (Q07817 whole entry, looked up) above
For series [12], the target named is T3, Bcl-2. The conditions noted are these: reported in the literature; cited from earlier work.
Target sequence in this assay (P10415 whole entry, species assumed): as the sequence (P10415 whole entry, looked up) above
Series [13] addresses T4, Bcl-w. To be noted: reported in the literature; cited from earlier work.
Series [14] concerns Bfl-1. The conditions noted are these: reported in the literature; cited from earlier work.
The target in series [15] is T1, Mcl-1. The series can be described thus: Competition of unlabeled peptides with a fluorescently labeled Bim variant. The conditions noted are these: unlabeled peptide.
Target sequence in this assay (Q07820 whole entry): as the sequence (Q07820 whole entry, looked up) above
The subject of a further series is MEF cells. The series is described as follows: Lactate dehydrogenase (LDH) release assay, non-specific cell lysis. It is filed as cell-based. An excerpt:
FIG. 5|Results of studies assessing non-specific cell-lysis by internally cross-linked peptides. Lactate dehydrogenase release assays (LDH) identified membrane-disruptive peptides 3 (SEQ ID NO:9) and 7 (SEQ ID NO:7); tested in MEF cells. Peptides 7, 10, 3, and 11-20 are SEQ ID NOs: 7, 8, 9, and 10-19 respectively.
Additional studies examined the non-specific cell lysis activity of peptide 3 (SEQ ID NO:9) (M1 SAHBd) and certain sequence variants of peptide 3 (SEQ ID NO:9) (M1 SAHBd).

For series [16], the target named is T1, Mcl-1. The series is described as follows: IC50 (nM). An excerpt:
Table printed on a drawing sheet, FIG. 8
Head of the field: IC50 (nM)
The patent's description of the figure: FIG. 8|Results of studies assessing cell permeability of various internally cross-linked peptides. Stapled peptides based on MB2 lead peptide are shown. […] MB2 (SEQ ID NO:23); B1 SAHBa (SEQ ID NO:24); B1 SAHBf (SEQ ID NO:25); B1 DAHBd (SEQ ID NO:26); B2 SAHBd (SEQ ID NO:27); B3 SAHBd (SEQ ID NO:28); B1 SAHBg (SEQ ID NO:29); B1 SAHBh (SEQ ID NO:30).

In series [17] the target is T1, Mcl-1. The series can be described thus: Fluorescence anisotropy direct binding of N-terminal fluorescein peptides. The conditions noted are these: 23-residue peptide with N-terminal fluorescein.
Target sequence in this assay (Q07820 whole entry): as the sequence (Q07820 whole entry, looked up) above
Setting [18] is: parent: Bim for Bim_A2eT, Bim_A2eT for its point mutants, A12/B3 for MS1/MS2.

Positions of bridges follow the written chain, without caps; N, C: chain ends. Non-standard residues stand in square brackets, D forms with d. Residues, ends and D or L forms follow the SMILES beside them. S5 = C=CCCC[C@](C)(N)C(=O)O; Nle = CCCC[C@H](N)C(=O)O

In the case of `CC[C@H](C)[C@H](NC(=O)[C@H](CCCNC(=N)N)NC(=O)[C@H](CCCNC(=N)N)NC(=O)[C@H](CC(C)C)NC(=O)CNC(=O)[C@H](CCC(N)=O)NC(=O)[C@@H](NC(=O)[C@@H](NC(=O)[C@H](Cc1c[nH]c2ccccc12)NC(=O)[C@@H](NC(=O)[C@H](CCC(=O)O)NC(=O)[C@@H]1CCCN1C(=O)[C@@H](N)CCCNC(=N)N)[C@@H](C)CC)[C@@H](C)CC)[C@@H](C)O)C(=O)NCC(=O)N[C@@H](CC(=O)O)C(=O)N[C@@H](CCC(=O)O)C(=O)N[C@@H](Cc1ccccc1)C(=O)N[C@@H](CC(N)=O)C(=O)N[C@@H](C)C(=O)N[C@@H](Cc1ccc(O)cc1)C(=O)N[C@@H](Cc1ccc(O)cc1)C(=O)N[C@@H](C)C(=O)N[C@@H](CCCNC(=N)N)C(N)=O` [Bim_A2eT_E2gG], the Kd on Mcl-1 [1] came out at 1.6 ± 0.57 nM; on Bfl-1 [2], 250 ± 63 nM; at Bcl-w [3] it was 94 ± 36 nM; at Bcl-xL [4] it was 37 ± 7 nM; at Bcl-2 [5], 150 ± 27 nM.

For `CC[C@H](C)[C@H](NC(=O)[C@H](CCC(=O)O)NC(=O)[C@H](CC(=O)O)NC(=O)CNC(=O)[C@H](CC(C)C)NC(=O)[C@H](CCCNC(=N)N)NC(=O)[C@H](CCC(N)=O)NC(=O)[C@H](CC(C)C)NC(=O)[C@H](CO)NC(=O)[C@H](CCC(N)=O)NC(=O)[C@@H](NC(=O)[C@H](CC(C)C)NC(=O)[C@H](Cc1c[nH]c2ccccc12)NC(=O)[C@@H](NC(=O)[C@H](CCC(=O)O)NC(=O)[C@@H]1CCCN1C(=O)[C@H](CCCNC(=N)N)NC(C)=O)[C@@H](C)CC)[C@@H](C)O)C(=O)N[C@@H](CC(N)=O)C(=O)N[C@@H](C)C(=O)N[C@@H](Cc1ccc(O)cc1)C(=O)N[C@@H](Cc1ccc(O)cc1)C(=O)N[C@@H](C)C(=O)N[C@@H](CCCNC(=N)N)C(N)=O` [MS2], the “binding affinity to Bcl-xL (in words)” value on Bcl-xL [6] was “micromolar affinity”. In addition, the “reduction in Bcl-xL binding relative to the peptide without the mutation” value on Bcl-xL [6] (setting [18]) was ~100 fold. The “binding affinity to Bcl-2 (in words)” value on Bcl-2 [7] is on record as “micromolar affinity”. Moreover, on Bcl-2 [7] (setting [18]), the “reduction in Bcl-2 binding relative to the peptide without the mutation” value is ~100 fold. Besides, the “binding affinity to Bcl-w (in words)” value on Bcl-w [8] is reported as “hundred-nanomolar range”. Moreover, at Bcl-w [8] (setting [18]), the “reduction in Bcl-w binding relative to the peptide without the mutation” value is listed as ~10 fold. The “binding affinity to Bfl-1 (in words)” value on Bfl-1 [9] is “micromolar affinity”. In addition, the “reduction in Bfl-1 binding relative to the peptide without the mutation” value on Bfl-1 [9] (setting [18]) is listed as ~100 fold. Further, the half-maximal effective concentration (EC50) in the series with Bcl-2/Myc 2924 cells is > 100000 nM; with MDA-MB-231 cells, > 100000 nM; with Mcl-1/Myc 2640 cells, 700 nM; in the series with Pfeiffer cells, > 100000 nM.

Consider `CC[C@H](C)[C@H](NC(=O)[C@H](CCCCN)NC(=O)[C@H](CCCNC(=N)N)NC(=O)[C@H](CC(C)C)NC(=O)[C@H](CCC(N)=O)NC(=O)[C@H](C)NC(=O)[C@H](C)NC(=O)[C@H](Cc1ccccc1)NC(=O)[C@H](CCC(=O)O)NC(=O)[C@@H]1CCCN1C(=O)[C@@H]1CCCN1C(=O)[C@H](CC(C)C)NC(=O)[C@H](CCC(=O)O)NC(=O)[C@H](C)NC(C)=O)C(=O)NCC(=O)N[C@@H](CC(=O)O)C(=O)N[C@@H](CCCCN)C(=O)N[C@H](C(=O)N[C@@H](Cc1ccc(O)cc1)C(=O)N[C@@H](CS)C(N)=O)C(C)C` [NoxaA], for which the 50% effective concentration (EC50) in the series on Bcl-2/Myc 2924 cells is > 100000 nM; in series [10], > 100000 nM; with MDA-MB-231 cells, > 100000 nM; in the series on Mcl-1/Myc 2640 cells it was 20000 nM. The “no binding up to (Bcl-xL)” value on Bcl-xL [11] is listed as > 2500 nM. In addition, the “no binding up to (Bcl-2)” value on Bcl-2 [12] is recorded as > 2500 nM. Moreover, the “no binding up to (Bcl-w)” value at Bcl-w [13] is > 2500 nM. The “no binding up to (Bfl-1)” value with Bfl-1 [14] is reported as > 2500 nM. On Mcl-1 [15], the “binding to Mcl-1 in competition assay (in words)” value was “very weak”.

As for `CCCC[C@H](NC(=O)[C@H](Cc1c[nH]c2ccccc12)NC(=O)[C@@H](NC(C)=O)[C@@H](C)CC)C(=O)N[C@H](C(=O)N[C@@H](CCC(N)=O)C(=O)NCC(=O)N[C@@H](CC(C)C)C(=O)N[C@@H](CCCNC(=N)N)C(=O)N[C@@]1(C)CCCC=CCCC[C@@](C)(C(=O)N[C@H](C(=O)N[C@@H](CC(N)=O)C(=O)N[C@@H](C)C(=O)N[C@@H](Cc2ccc(O)cc2)C(=O)N[C@@H](Cc2ccc(O)cc2)C(=O)N[C@@H](C)C(=O)N[C@@H](CCCNC(=N)N)C(=O)N[C@@H](CCCNC(=N)N)C(N)=O)[C@@H](C)CC)NC(=O)[C@H](CC(=O)O)NC(=O)CNC(=O)[C@H](CC(C)C)NC1=O)[C@@H](C)O` [peptide 7, IWNleTQGLRXLGDXINAYYARR] (Ac-IW[Nle]TQGLR[S5]LGD[S5]INAYYARR-NH2; staple 9-13; N-terminus assumed), the “LDH release, membrane disruption (in words)” value with MEF cells was “membrane-disruptive”.

For the compound “IWFAQEIDRIGDEVNAYYARR (See specification as filed for detailed description of substitutions and preferred embodiments) [B1, native, non-stapled B1 peptide]”, the IC50 with Mcl-1 [16] stood at 90 nM.

In the case of “RPEIWLGQSLQRLGDEINAYYAR [B3, Bim-BH3 variant clone from yeast surface display library]”, in the series with Mcl-1 [17], the “binding preference among KSBcl-2 and five human Bcl-2 family proteins” value was “bound to KSBci-2 and Mcl-1 in preference to Bcl-2, Bfl-1, Bcl-w, and to a lesser extent Bcl-xL”.

With “RPEIWMGQGLRRLGDEINAYYAR [A12, Bim-BH3 variant clone from yeast surface display library]”, the “binding preference among KSBcl-2 and five human Bcl-2 family proteins” value with Mcl-1 [17] is “bound to KSBci-2 and Mcl-1 in preference to Bcl-2, Bfl-1, Bcl-w, and to a lesser extent Bcl-xL”.
